Experimental data reported in ChEMBL document CHEMBL3826962, “Synthesis, biological evaluation and molecular docking of 2-phenyl-benzo[d]oxazole-7-carboxamide derivatives as potential Staphylococcus aureus Sortase A inhibitors” (Bioorg Med Chem Lett, 2016).

Test: Inhibition of Staphylococcus aureus sortase A using Abz-LPETG-Dap(DNP)-NH2 as substrate preincubated for 1 hr followed by substrate addition by FRET assay

SMILES | IC50 [µM]
CC(C)CNC(=O)c1cccc2nc(-c3ccc(COC(=O)c4ccc([N+](=O)[O-])cc4)cc3)oc12 | 159
CC(C)NC(=O)c1cccc2nc(-c3ccc(COC(=O)c4cccc(O)c4)cc3)oc12 | 144
CCCCNC(=O)c1cccc2nc(-c3ccc(COC(=O)c4cccc(O)c4)cc3)oc12 | 161
O=C(Cc1cccc(O)c1)OCc1ccc(-c2nc3ccccc3o2)cc1 | > 200
CC(C)NC(=O)c1cccc2nc(-c3ccc(COC(=O)Cc4ccc(O)cc4)cc3)oc12 | 116
CCCCNCc1ccc(-c2nc3cccc(C(=O)NCC(C)C)c3o2)cc1 | 136
CC(C)CNC(=O)c1cccc2nc(-c3ccc(CNCc4ccccc4)cc3)oc12 | 128
CCCCNC(=O)c1cccc2nc(-c3ccc(COC(=O)Cc4cccc(O)c4)cc3)oc12 | 177
O=C(OCc1ccc(-c2nc3ccccc3o2)cc1)c1ccc(O)cc1 | > 200
CCCCNC(=O)c1cccc2nc(-c3ccc(COC(=O)Cc4ccc(O)cc4)cc3)oc12 | 181
CCCCNC(=O)c1cccc2nc(-c3ccc(COC(=O)c4ccc(O)cc4)cc3)oc12 | 155
CC(C)CNC(=O)c1cccc2nc(-c3ccc(COC(=O)c4ccccc4[N+](=O)[O-])cc3)oc12 | 155
CC(C)CNC(=O)c1cccc2nc(-c3ccc(COC(=O)c4ccccc4)cc3)oc12 | 161
O=C(Cc1ccc(O)c(O)c1)OCc1ccc(-c2nc3ccccc3o2)cc1 | > 200
CCCCNC(=O)c1cccc2nc(-c3ccc(COC(=O)/C=C/c4ccc(O)cc4)cc3)oc12 | 184
O=C(OCc1ccc(-c2nc3ccccc3o2)cc1)c1cccc(O)c1 | > 200

Now those with a lower IC50, led by results:

IC50 [µM] | SMILES
87.4 | CC(C)CNC(=O)c1cccc2nc(-c3ccc(COC(=O)/C=C/c4ccc(O)cc4)cc3)oc12
19.8 | CC(C)CNC(=O)c1cccc2nc(-c3ccc(COC(=O)c4ccc(O)c(O)c4O)cc3)oc12
46.3 | CC(C)NC(=O)c1cccc2nc(-c3ccc(COC(=O)c4ccc(O)cc4)cc3)oc12
22.4 | CC(C)CNC(=O)c1cccc2nc(-c3ccc(COC(=O)c4ccc(O)cc4O)cc3)oc12
74.8 | CC(C)NC(=O)c1cccc2nc(-c3ccc(COC(=O)Cc4ccc(O)c(O)c4)cc3)oc12
64.4 | CC(C)CNC(=O)c1cccc2nc(-c3ccc(COC(=O)Cc4ccc(O)c(O)c4)cc3)oc12
26.1 | CC(C)CNC(=O)c1cccc2nc(-c3ccc(COC(=O)c4cccc(O)c4)cc3)oc12
24.8 | COc1cc(OC)cc(C(=O)OCc2ccc(-c3nc4cccc(C(=O)NCC(C)C)c4o3)cc2)c1
81.4 | CC(C)CNC(=O)c1cccc2nc(-c3ccc(COC(=O)Cc4cccc(O)c4)cc3)oc12
73.2 | CC(C)CNC(=O)c1cccc2nc(-c3ccc(COC(=O)Cc4ccc(O)cc4)cc3)oc12
87.4 | CC(C)CNC(=O)c1cccc2nc(-c3ccc(COC(=O)Cc4ccc([N+](=O)[O-])c(O)c4)cc3)oc12
20.6 | CC(C)CNC(=O)c1cccc2nc(-c3ccc(COC(=O)c4ccc(O)c(O)c4)cc3)oc12
65.5 | COc1ccc(NCc2ccc(-c3nc4cccc(C(=O)NCC(C)C)c4o3)cc2)cc1
